Key:
Format in all cases: in vivo
[1] = test system: umbrella sedge (Cyperus difformis); assay: Test B flooded paddy test plant response
Outline: (§1)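 Compounds were added directly to paddy water over 2-leaf-stage plants in pots flooded 3 cm above soil, water depth maintained. Visual injury scored against controls after 13 to 15 days in greenhouse, 0 (none) to 100 (complete control); dash indicates no result.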

rice (Oryza sativa) = assay: Test B flooded paddy test plant response
Outline: as §1

[2] = test system: barnyardgrass (Echinochloa crus-galli); assay: Test B flooded paddy test plant response
Outline: as §1

[3] = test system: ducksalad (Heteranthera limosa); assay: Test B flooded paddy test plant response
Outline: as §1

[4] = test system: giant foxtail (Setaria faberi); assay: Test A pre-/postemergence plant response
Outline: (§2)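 Seeds sown in loam–sand blend; test chemicals in non-phytotoxic solvent with surfactant applied preemergence as directed soil spray and, concurrently, postemergence to plants 2–10 cm tall at one- to two-leaf stage. Greenhouse ~10 days, then visual injury rating vs untreated controls on 0–100 scale (0 = no effect, 100 = complete control).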

[5] = test system: morningglory (Ipomoea coccinea); assay: Test A pre-/postemergence plant response
Outline: as §2

[6] = test system: wheat (Triticum aestivum); assay: Test A pre-/postemergence plant response
Outline: as §2

[7] = test system: velvetleaf (Abutilon theophrasti); assay: Test A pre-/postemergence plant response
Outline: as §2

[8] = test system: pigweed (Amaranthus retroflexus); assay: Test A pre-/postemergence plant response
Outline: as §2

corn (Zea mays) = assay: Test A pre-/postemergence plant response
Outline: as §2

[9] = test system: barnyardgrass (Echinochloa crus-galli); assay: Test A pre-/postemergence plant response
Outline: as §2

[10] = test system: large crabgrass (Digitaria sanguinalis); assay: Test A pre-/postemergence plant response
Outline: as §2

[11] = test system: blackgrass (Alopecurus myosuroides); assay: Test A pre-/postemergence plant response
Outline: as §2

[12] = test system: canarygrass (Phalaris minor); assay: Test A pre-/postemergence plant response
Outline: as §2

[13] = Flood (flooded paddy test), 62 g ai/ha, scale 0 to 100, 0 no effect, 100 complete control
[14] = Flood (flooded paddy test), 125 g ai/ha, scale 0 to 100, 0 no effect, 100 complete control
[15] = Flood (flooded paddy test), 250 g ai/ha, scale 0 to 100, 0 no effect, 100 complete control
[16] = Flood, 31 g ai/ha, scale 0 to 100
[17] = Postemergence, 125 g ai/ha, 0 to 100 scale, 0 no effect, 100 complete control
[18] = Postemergence, 500 g ai/ha, 0 to 100 scale, 0 no effect, 100 complete control
[19] = Preemergence, 125 g ai/ha, 0 to 100 scale (0 no effect, 100 complete control)
[20] = Preemergence, 500 g ai/ha, 0 to 100 scale (0 no effect, 100 complete control)
[21] = Postemergence, 31 g ai/ha, 0 to 100 scale, 0 no effect, 100 complete control
[22] = Preemergence, 31 g ai/ha, 0 to 100 scale, 0 is no effect, 100 is complete control

## CCn1ncc(O)c(-c2cn(-c3ccc(Cl)cc3)nc2C)c1=O [Compound 65]
[1]; [13]
  Plant response rating, Sedge, Umbrella: 0
[1]; [14]
  Plant response rating, Sedge, Umbrella: 0
[1]; [15]
  Plant response rating, Sedge, Umbrella: 80
[1]; [16]
  Plant response rating, Sedge, Umbrella: 0
Rice (Oryza sativa); [13]
  Plant response rating, Rice: 0
Rice (Oryza sativa); [14]
  Plant response rating, Rice: 0
Rice (Oryza sativa); [15]
  Plant response rating, Rice: 15
Rice (Oryza sativa); [16]
  Plant response rating, Rice: 0
[2]; [13]
  Plant response rating, Barnyardgrass: 0
[2]; [14]
  Plant response rating, Barnyardgrass: 0
[2]; [15]
  Plant response rating, Barnyardgrass: 0
[2]; [16]
  Plant response rating, Barnyardgrass: 0
[3]; [13]
  Plant response rating, Ducksalad: 0
[3]; [14]
  Plant response rating, Ducksalad: 0
[3]; [15]
  Plant response rating, Ducksalad: 40
[3]; [16]
  Plant response rating, Ducksalad: 0
[4]; [17]
  Plant response rating, Foxtail, Giant: 0
[4]; [18]
  Plant response rating, Foxtail, Giant: 20
[4]; [19]
  Plant response rating, Foxtail, Giant: 0
[4]; [20]
  Plant response rating, Foxtail, Giant: 90
[5]; [17]
  Plant response rating, Morningglory: 0
[5]; [18]
  Plant response rating, Morningglory: 0
[5]; [19]
  Plant response rating, Morningglory: 0
[5]; [20]
  Plant response rating, Morningglory: 0
[6]; [17]
  Plant response rating, Wheat: 0
[6]; [18]
  Plant response rating, Wheat: 0
[6]; [19]
  Plant response rating, Wheat: 0
[6]; [20]
  Plant response rating, Wheat: 0
[7]; [17]
  Plant response rating, Velvetleaf: 0
[7]; [18]
  Plant response rating, Velvetleaf: 0
[7]; [19]
  Plant response rating, Velvetleaf: 0
[7]; [20]
  Plant response rating, Velvetleaf: 0
[8]; [17]
  Plant response rating, Pigweed: 0
[8]; [18]
  Plant response rating, Pigweed: 0
[8]; [19]
  Plant response rating, Pigweed: 0
[8]; [20]
  Plant response rating, Pigweed: 0
Corn (Zea mays); [17]
  Plant response rating, Corn: 0
Corn (Zea mays); [18]
  Plant response rating, Corn: 0
Corn (Zea mays); [19]
  Plant response rating, Corn: 0
Corn (Zea mays); [20]
  Plant response rating, Corn: 0
[9]; [17]
  Plant response rating, Barnyardgrass: 0
[9]; [18]
  Plant response rating, Barnyardgrass: 0
[9]; [19]
  Plant response rating, Barnyardgrass: 0
[9]; [20]
  Plant response rating, Barnyardgrass: 0
[10]; [17]
  Plant response rating, Crabgrass, Large: 0
[10]; [18]
  Plant response rating, Crabgrass, Large: 20
[10]; [19]
  Plant response rating, Crabgrass, Large: 0
[10]; [20]
  Plant response rating, Crabgrass, Large: 0

## CC(C)Cc1cc(-c2ccc(Cl)cc2)nn1-c1c(O)cnn(C)c1=O [Compound 92]
[11]; [21]
  Plant response rating, Blackgrass: 0
[11]; [17]
  Plant response rating, Blackgrass: 50
[11]; [22]
  Plant response rating, Blackgrass: 0
[11]; [19]
  Plant response rating, Blackgrass: 0
[12]; [21]
  Plant response rating, Canarygrass: 0
[12]; [17]
  Plant response rating, Canarygrass: 30
[12]; [22]
  Plant response rating, Canarygrass: 0
[12]; [19]
  Plant response rating, Canarygrass: 10
[4]; [21]
  Plant response rating, Foxtail, Giant: 10
[4]; [17]
  Plant response rating, Foxtail, Giant: 60
[4]; [22]
  Plant response rating, Foxtail, Giant: 0
[4]; [19]
  Plant response rating, Foxtail, Giant: 50
[6]; [21]
  Plant response rating, Wheat: 0
[6]; [17]
  Plant response rating, Wheat: 30
[6]; [22]
  Plant response rating, Wheat: 0
[6]; [19]
  Plant response rating, Wheat: 0
[8]; [21]
  Plant response rating, Pigweed: 0
[8]; [17]
  Plant response rating, Pigweed: 0
[8]; [22]
  Plant response rating, Pigweed: 0
[8]; [19]
  Plant response rating, Pigweed: 0
Corn (Zea mays); [21]
  Plant response rating, Corn: 0
Corn (Zea mays); [17]
  Plant response rating, Corn: 20
Corn (Zea mays); [22]
  Plant response rating, Corn: 0
Corn (Zea mays); [19]
  Plant response rating, Corn: 20
[9]; [21]
  Plant response rating, Barnyardgrass: 0
[9]; [17]
  Plant response rating, Barnyardgrass: 80
[9]; [22]
  Plant response rating, Barnyardgrass: 0
[9]; [19]
  Plant response rating, Barnyardgrass: 20
[10]; [21]
  Plant response rating, Crabgrass, Large: 0
[10]; [17]
  Plant response rating, Crabgrass, Large: 10
[10]; [22]
  Plant response rating, Crabgrass, Large: 0
[10]; [19]
  Plant response rating, Crabgrass, Large: 20

## Cc1cc(-c2ccc(C(F)(F)F)cc2)nn1-c1c(O)c(C(F)(F)F)nn(C)c1=O [Compound 42]
[1]; [13]
  Plant response rating, Sedge, Umbrella: 0
[1]; [14]
  Plant response rating, Sedge, Umbrella: 0
[1]; [15]
  Plant response rating, Sedge, Umbrella: 0
[1]; [16]
  Plant response rating, Sedge, Umbrella: 0
Rice (Oryza sativa); [13]
  Plant response rating, Rice: 0
Rice (Oryza sativa); [14]
  Plant response rating, Rice: 0
Rice (Oryza sativa); [15]
  Plant response rating, Rice: 0
Rice (Oryza sativa); [16]
  Plant response rating, Rice: 0
[2]; [13]
  Plant response rating, Barnyardgrass: 0
[2]; [14]
  Plant response rating, Barnyardgrass: 0
[2]; [15]
  Plant response rating, Barnyardgrass: 0
[2]; [16]
  Plant response rating, Barnyardgrass: 0
[3]; [13]
  Plant response rating, Ducksalad: 0
[3]; [14]
  Plant response rating, Ducksalad: 0
[3]; [15]
  Plant response rating, Ducksalad: 0
[3]; [16]
  Plant response rating, Ducksalad: 0
[4]; [17]
  Plant response rating, Foxtail, Giant: 0
[4]; [18]
  Plant response rating, Foxtail, Giant: 10
[4]; [19]
  Plant response rating, Foxtail, Giant: 0
[4]; [20]
  Plant response rating, Foxtail, Giant: 0
[5]; [17]
  Plant response rating, Morningglory: 0
[5]; [18]
  Plant response rating, Morningglory: 0
[5]; [19]
  Plant response rating, Morningglory: 0
[5]; [20]
  Plant response rating, Morningglory: 0
[6]; [17]
  Plant response rating, Wheat: 0
[6]; [18]
  Plant response rating, Wheat: 10
[6]; [19]
  Plant response rating, Wheat: 0
[6]; [20]
  Plant response rating, Wheat: 0
[7]; [17]
  Plant response rating, Velvetleaf: 0
[7]; [18]
  Plant response rating, Velvetleaf: 0
[7]; [19]
  Plant response rating, Velvetleaf: 0
[7]; [20]
  Plant response rating, Velvetleaf: 0
[8]; [17]
  Plant response rating, Pigweed: 0
[8]; [18]
  Plant response rating, Pigweed: 0
[8]; [19]
  Plant response rating, Pigweed: 0
[8]; [20]
  Plant response rating, Pigweed: 0
Corn (Zea mays); [17]
  Plant response rating, Corn: 20
Corn (Zea mays); [18]
  Plant response rating, Corn: 20
Corn (Zea mays); [19]
  Plant response rating, Corn: 0
Corn (Zea mays); [20]
  Plant response rating, Corn: 0
[9]; [17]
  Plant response rating, Barnyardgrass: 0
[9]; [18]
  Plant response rating, Barnyardgrass: 0
[9]; [19]
  Plant response rating, Barnyardgrass: 0
[9]; [20]
  Plant response rating, Barnyardgrass: 0
[10]; [17]
  Plant response rating, Crabgrass, Large: 0
[10]; [18]
  Plant response rating, Crabgrass, Large: 0
[10]; [19]
  Plant response rating, Crabgrass, Large: 0
[10]; [20]
  Plant response rating, Crabgrass, Large: 0

— patent publication US20100267561A1, “HERBICIDAL PYRIDAZINONE DERIVATIVES” (priority 2007, published 2010)
